Laboratory results reported in patent US9938273B2 (Plexxikon Inc., priority 2015, dated 2018).

What was measured:
[1] = tested on: MOLM-14 D835Y cells, FLT3 ITD and FLT3 D835Y; test: Cell proliferation assay (CellTiter-Glo), MOLM-14 D835Y; format: cell-based; settings: Homo sapiens, 72 h, 3d-Growth, GMean
Method in brief: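 Three-day growth at 37 °C, 5% CO2 under compound (1 μM top final, 1:3 dilutions, eight points, 0.2% DMSO), read as ATP luminescence by CellTiter-Glo for IC50. Cells: MOLM-14 with FLT3 ITD plus D835Y or F691L, and IL-3-deprived Ba/F3 transfected with FLT3 ITD/D835Y, 1×10^4 per well.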

FLT3-D835Y = molecular target: T1, FLT3-D835Y (Homo sapiens, UniProt P36888, D835Y); test: AlphaScreen kinase assay with recombinant enzyme, FLT3-D835Y; format: biochemical; settings: 8pt, GMean
T1 construct: purchased Invitrogen PV3967
T1 sequence (P36888 27-993 D835Y): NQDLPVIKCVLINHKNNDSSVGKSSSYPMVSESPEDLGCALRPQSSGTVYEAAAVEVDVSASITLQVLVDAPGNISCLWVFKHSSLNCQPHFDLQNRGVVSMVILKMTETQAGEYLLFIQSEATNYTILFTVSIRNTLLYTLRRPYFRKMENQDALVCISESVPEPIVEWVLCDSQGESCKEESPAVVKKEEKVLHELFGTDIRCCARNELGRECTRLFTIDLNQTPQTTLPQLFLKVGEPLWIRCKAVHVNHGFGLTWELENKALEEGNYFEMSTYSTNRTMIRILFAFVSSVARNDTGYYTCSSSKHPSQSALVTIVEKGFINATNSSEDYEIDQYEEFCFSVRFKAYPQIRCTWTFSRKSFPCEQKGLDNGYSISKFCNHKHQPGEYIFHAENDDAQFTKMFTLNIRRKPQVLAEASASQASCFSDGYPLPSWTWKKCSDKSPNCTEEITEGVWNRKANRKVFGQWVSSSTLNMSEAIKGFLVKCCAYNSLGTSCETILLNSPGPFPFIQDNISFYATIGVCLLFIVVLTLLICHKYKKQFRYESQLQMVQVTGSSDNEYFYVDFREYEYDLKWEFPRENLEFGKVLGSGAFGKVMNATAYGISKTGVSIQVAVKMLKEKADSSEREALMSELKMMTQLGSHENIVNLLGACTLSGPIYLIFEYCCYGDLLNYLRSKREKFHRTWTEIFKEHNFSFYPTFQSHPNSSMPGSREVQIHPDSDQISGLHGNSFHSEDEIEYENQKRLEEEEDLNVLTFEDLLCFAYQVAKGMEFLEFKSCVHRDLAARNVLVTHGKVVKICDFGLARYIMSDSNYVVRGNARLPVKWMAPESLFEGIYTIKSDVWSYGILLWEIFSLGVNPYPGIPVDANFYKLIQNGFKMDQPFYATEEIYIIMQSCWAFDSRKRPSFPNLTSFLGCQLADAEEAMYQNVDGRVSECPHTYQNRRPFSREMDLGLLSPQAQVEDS
Method in brief: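 AlphaScreen, biotinylated poly(Glu4-Tyr) 30 nM final; PY20 anti-pTyr acceptor and streptavidin donor beads 10 μg/mL; IC50 final conc. 10 μM (FLT3-D835Y, FLT3-ITD) / 100 μM (c-KIT); detection incubations 20 + 60 min RT; 580 nm emission.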

Compound	IC50 [1]	IC50 (FLT3-D835Y)
CC(C)(NC(=O)c1cccc(-c2cnc3[nH]c(C4=CCN(C(=O)C5CC5)C4)cc3c2)n1)C(N)=O [Compound P-0179, N-(2-amino-1,1-dimethyl-2-oxo-ethyl)-6-[2-[1-(cyclopropanecarbonyl)-2,5-dihydropyrrol-3-yl]-1H-pyrrolo[2,3-b]pyridin-5-yl]pyridine-2-carboxamide]	0.0001 to 10 µM	0.0001 to 10 µM
CC(C)(C#N)NC(=O)c1cccc(-c2cnc3[nH]c(C4=CCSCC4)cc3c2)n1 [Compound P-0180, N-(1-cyano-1-methyl-ethyl)-6-[2-(3,6-dihydro-2H-thiopyran-4-yl)-1H-pyrrolo[2,3-b]pyridin-5-yl]pyridine-2-carboxamide]	0.0001 to 10 µM	0.0001 to 10 µM
CC(C)(C#N)NC(=O)c1cccc(-c2cnc3[nH]c(C4=CCN(C(=O)C5CC5)CC4)cc3c2)n1 [Compound P-0181, N-(1-cyano-1-methyl-ethyl)-6-[2-[1-(cyclopropanecarbonyl)-3,6-dihydro-2H-pyridin-4-yl]-1H-pyrrolo[2,3-b]pyridin-5-yl]pyridine-2-carboxamide]	0.0001 to 10 µM	0.0001 to 10 µM
CC(C)(C#N)NC(=O)c1cccc(-c2cnc3[nH]c(C4=CCNCC4)cc3c2)n1 [Compound P-0182, N-(1-cyano-1-methyl-ethyl)-6-[2-(1,2,3,6-tetrahydropyridin-4-yl)-1H-pyrrolo[2,3-b]pyridin-5-yl]pyridine-2-carboxamide]	0.0001 to 10 µM	0.0001 to 10 µM
CC(C)(C#N)NC(=O)c1cccc(-c2cnc3[nH]c(-c4cn[nH]c4)cc3c2)n1 [Compound P-0183, N-(1-cyano-1-methyl-ethyl)-6-[2-(1H-pyrazol-4-yl)-1H-pyrrolo[2,3-b]pyridin-5-yl]pyridine-2-carboxamide]	0.0001 to 10 µM	0.0001 to 10 µM
CC(C)(C#N)NC(=O)c1cccc(-c2cnc3[nH]c(-c4cnn(C5CCNCC5)c4)cc3c2)n1 [Compound P-0187, N-(1-cyano-1-methyl-ethyl)-6-[2-[1-(4-piperidyl)pyrazol-4-yl]-1H-pyrrolo[2,3-b]pyridin-5-yl]pyridine-2-carboxamide]	0.0001 to 10 µM	0.0001 to 10 µM
CC(C)(C#N)NC(=O)c1cccc(-c2cnc3[nH]c(C4=CCN(S(=O)(=O)C5CC5)CC4)cc3c2)n1 [Compound P-0188, N-(1-cyano-1-methyl-ethyl)-6-[2-(1-cyclopropylsulfonyl-3,6-dihydro-2H-pyridin-4-yl)-1H-pyrrolo[2,3-b]pyridin-5-yl]pyridine-2-carboxamide]	0.0001 to 10 µM	0.0001 to 10 µM
CC(C)(C#N)NC(=O)c1cccc(-c2cnc3[nH]c(-c4ccc(C5CC5)cc4)cc3c2)n1 [Compound P-0189, N-(1-cyano-1-methyl-ethyl)-6-[2-(4-cyclopropylphenyl)-1H-pyrrolo[2,3-b]pyridin-5-yl]pyridine-2-carboxamide]	0.0001 to 10 µM	0.0001 to 10 µM

Second part, the compound after the results:

IC50 [1]	IC50 (FLT3-D835Y)	Compound
0.0001 to 10 µM	0.0001 to 10 µM	CC(C)(C#N)NC(=O)c1cccc(-c2cnc3[nH]c(-c4cnn(C5CCOC5)c4)cc3c2)n1 (stereo not shown) [Compound P-0173, N-(1-cyano-1-methyl-ethyl)-6-[2-(1-tetrahydrofuran-3-ylpyrazol-4-yl)-1H-pyrrolo[2,3-b]pyridin-5-yl]pyridine-2-carboxamide]
0.0001 to 10 µM	0.0001 to 10 µM	CC(C)(C#N)NC(=O)c1cccc(-c2cnc3[nH]c(-c4cnn(CCN5CCOCC5)c4)cc3c2)n1 [Compound P-0174, N-(1-cyano-1-methyl-ethyl)-6-[2-[1-(2-morpholinoethyl)pyrazol-4-yl]-1H-pyrrolo[2,3-b]pyridin-5-yl]pyridine-2-carboxamide]
0.0001 to 10 µM	0.0001 to 10 µM	C#Cc1cc2cc(-c3cccc(C(=O)NC(C)(C)C#N)n3)cnc2[nH]1 [Compound P-0175, N-(1-cyano-1-methyl-ethyl)-6-(2-ethynyl-1H-pyrrolo[2,3-b]pyridin-5-yl)pyridine-2-carboxamide]
0.0001 to 10 µM	0.0001 to 10 µM	CC(C)(C#N)NC(=O)c1cccc(-c2cnc3[nH]c(C#Cc4ccccc4)cc3c2)n1 [Compound P-0176, N-(1-cyano-1-methyl-ethyl)-6-[2-(2-phenylethynyl)-1H-pyrrolo[2,3-b]pyridin-5-yl]pyridine-2-carboxamide]
0.0001 to 10 µM	0.0001 to 10 µM	Cn1cncc1C#Cc1cc2cc(-c3cccc(C(=O)NC(C)(C)C#N)n3)cnc2[nH]1 [Compound P-0177, N-(1-cyano-1-methyl-ethyl)-6-[2-[2-(3-methylimidazol-4-yl)ethynyl]-1H-pyrrolo[2,3-b]pyridin-5-yl]pyridine-2-carboxamide]
0.0001 to 10 µM	0.0001 to 10 µM	Cc1nn(C(C)C)cc1-c1cc2cc(-c3cccc(C(=O)NC(C)(C)C#N)n3)cnc2[nH]1 [Compound P-0178, N-(1-cyano-1-methyl-ethyl)-6-[2-(1-isopropyl-3-methyl-pyrazol-4-yl)-1H-pyrrolo[2,3-b]pyridin-5-yl]pyridine-2-carboxamide]
